# Reference: publication PMC10570359, “Dietary supplementation of cystinotic mice by lysine inhibits the megalin pathway and decreases kidney cystine content” (Scientific Reports, 2023)
# Experiments:
# megalin pathway [1] = assay: LMW proteinuria / albuminuria in Ctns KO mice under 5x-dAA diets
# Protocol: After 24-h adaptation in metabolic cages, urine was collected during the following 24 h in presence of 0.1% sodium azide and 1x-protease inhibitors (Thermo Scientific). When in metabolic cages, mice had free access to tap water and food. Blood was collected 2 days before starting the treatments and entry into metabolic cages (baseline) and at the sacrifice to obtain serum. Body weight was recorded before entering the metabolic cages. Urine and serum analyses were performed by the veterinary laboratory Appialab Srl (Rome, Italy). Urinary levels of CC16 were measured by the Mouse Clara Cell Protein 16 kit 96 T #EKU03200 (Biomatik) according to manufacturer’s instructions. Serum levels of cystatin-C were measured by the Mouse/Rat Cystatin C Quantitative ELISA #MSCTC0 (R&D Systems). […] Creatinine clearance was normalized by mouse body weight.
# Ctns KO mice kidneys = assay: Kidney cystine content in Ctns KO mice; type: in vivo; settings: for mean kidney cystine at 8 months-of-age: Ctns KO female mice, diet from 6-to-8 months-of-age; for kidney cystine as percentage of mean control diet, pooled for 8 and 12 months-of-age: 2 and 6 months of treatment
# Protocol: For this pilot study, we selected tissue accumulation of cystine as a clear and measurable outcome to quantify long-term interference of dAAs with the endocytic supply of disulfide-rich plasma proteins to kidney PTCs.
# Mice were euthanized by cabon dioxide (CO2) inhalation. Dissected tissues were homogenized in 10 mM N-ethylmaleimide. Protein fraction was obtained after precipitation in 10% 5-sulfosalicylic acid and centrifugation at 20,000g for 20 min at 4 °C. Protein pellet was resuspended in 100 mM NaOH and assayed by the Bio-Rad Protein Assay according to manufacturer’s instructions. Supernatant (50 μl) was mixed with 50 μL of the internal standard solution (Cystine d6) and vortexed for 5 s; then the mixture was extracted with 200 μl of acetonitrile, vortexed for at least 30 s, then centrifuged at 13,000 rpm for 9 min. Liquid chromatography and mass spectrometry analysis was performed by a UHPLC Agilent 1290 Infinity II 6470 (Agilent Technologies) equipped with an ESI-JET-STREAM source operating in the positive ion (ESI +) mode. Equipment was controlled and data were analyzed using MassHunter Workstation (Agilent Technologies). The separation column was InfinityLab Poroshell 120 HILIC 1.9 μm 100 × 2.1 mm (Agilent Technologies). Validation of the method was performed basing on the US Food and Drug Administration (FDA) guideline for industry bioanalytical method validation (FDA 2013) and European Medicines Agency (EMA) guideline (EMA 2011). The assay was validated for selectivity, specificity, linearity and limit of quantification, accuracy and precision, matrix effects and recovery, and stability.
# porcine megalin [2] = molecular target: T1, porcine megalin (Sus scrofa, UniProt C0HL13); assay: Surface plasmon resonance: competition for lysozyme binding to chip-immobilized megalin; settings: 10 µg/ml lysozyme in 0 to 100 mM amino-acid
# Protocol: (§1) To directly address whether supra-physiological concentrations of dibasic amino-acids (dAAs) can interfere with binding of protein ligands to megalin, we used surface plasmon resonance. Sensor chips were derivatized with porcine megalin at high density. […] After flushing, chips were incubated with 10 µg/ml of three analytes: the megalin chaperone, RAP (receptor-associated protein), as positive control (not shown), or two physiological megalin ligands: transcobalamine:cobalamine complexes (TC:B12; Fig. 1; sensorgrams shown at Supplemental Fig. 1a) or lysozyme (Supplemental Fig. 1b), diluted in 0 to 100 mM of the same amino-acids in buffer. […] The supraphysiological range for effective competition in vitro defined the necessary increment in urinary concentration from dietary supplementation for significant competition in vivo.
# (§2) Surface plasmon resonance (SPR) analysis of the binding to chip-immobilized megalin of receptor-associated protein (RAP), transcobalamine:cobalamine complex (TC:B12) and lysozyme was carried out using a Biacore T200 instrument (Uppsala, Sweden). The sensor chips (type CM5) were activated with a 1:1 mixture of 0.2 M N-ethyl-N′-(3-dimethylaminopropyl) carbodiimide and 0.05 M N-hydroxysuccinimide in H2O. Porcine megalin[49] was immobilized on the chip in 10 mM sodium acetate, pH 4.0, and the remaining binding sites were blocked with 1 M ethanolamine, pH 8.5. The SPR signal generated from immobilized megalin were obtained with a density of 4.5 fmol protein/mm^2.
# (§3) Human RAP was produced as recombinant protein in E. coli[50] and used to validate the sensor chip. TC was purified and complexed with B12 as described (TC/B12)[50],[51]. Human recombinant lysozyme was purchased from Sigma-Aldrich (expressed in rice, # L1667). Sensorgrams were generated using each of these three ligands at 10 µg/ml in a running buffer consisting of 10 mM Hepes, 150 mM NaCl, 4 mM CaCl2 and 0.05% Tween 20, pH 7.4. The flow cells were regenerated with 1 M ethanolamine pH 9.0. Analyte testing was performed as a dual injection starting with running buffer supplemented with the defined concentrations of amino acids followed by injection of analyte in the same solution. The pH of all buffers was adjusted after amino acids addition. All binding experiments were made as at least independent triplicate of technical duplicates and data were analyzed using the Biacore T200 evaluation software version 3.1.
# megalin pathway [3] = assay: LMW proteinuria (urinary CC16) in WT mice under 5x-dAA diets; type: in vivo; settings: WT C57Bl-6 mice, 3 weeks diet, vs control diet
# Protocol: In a second experiment, 5x-D-lysine was compared to regular diet.
# Body weight was recorded before entering the metabolic cages. […] Creatinine clearance was normalized by mouse body weight.
# NaPi-IIa and SGLT-2 = NaPi-IIa and SGLT-2 mRNA levels in Ctns KO mice kidneys; type: in vivo; settings: Ctns KO mice kidneys at 8 months of age, fold-change viz control diet
# Protocol: At cellular level, we assessed PT cell death linked to compensatory renewal, by measuring Ki-67 immunolabelling abundance, a validated proliferation index (Fig. 6a)[22]. […] At subcellular level, NaPi-IIa and SGLT-2 mRNA levels were measured as apical differentiation markers (Fig. 6b,c).
# Figure 6 Effects of diets on selected PTC indices in Ctns KO mice kidneys at 8 months of age. (a) Proliferative events in PTCs were identified by Ki-67 immunolabelling in confocal images and scored over random fields to cumulative areas of 0.96 mm^2. […] For representative confocal images and proliferation events in all cortical compartments, see Supplemental Fig. 6. (b,c) Apical differentiation state. Expression levels of NaPi-IIa and SGLT-2 as representative apical PT transporters were calculated as ratios to the housekeeping gene, HPRT1, and presented as fold-change viz control diet.
# porcine megalin [4] = molecular target: T1, porcine megalin; assay: Surface plasmon resonance: competition for TC:B12 binding to chip-immobilized megalin; settings: for IC50: IC50 for TC:B12/megalin interaction (mM; 95%CI), 10 µg/ml TC:B12 in 0 to 100 mM amino-acid, Biacore; for SPR signal of amino-acid alone on megalin chip: chips exposed to increasing concentrations of amino-acid, no analyte
# Protocol: as §1
# Figure 1 Acellular assay: direct competition for transcobalamine:cobalamine binding to megalin immobilized on Biacore sensor chips. Signals of sensorgrams (shown in Supplemental Fig. 1) were normalized to control signal without AA supplementation, taken as the unity, and are means ± SEM of at least four independent technical duplicate values at each of the indicated amino-acid-concentrations.
# as §2, §3
# [5] = Ctns KO mice at 8 months of age, 2 months of treatment, urine, mean ± SEM
# T1 sequence (C0HL13 26-4652): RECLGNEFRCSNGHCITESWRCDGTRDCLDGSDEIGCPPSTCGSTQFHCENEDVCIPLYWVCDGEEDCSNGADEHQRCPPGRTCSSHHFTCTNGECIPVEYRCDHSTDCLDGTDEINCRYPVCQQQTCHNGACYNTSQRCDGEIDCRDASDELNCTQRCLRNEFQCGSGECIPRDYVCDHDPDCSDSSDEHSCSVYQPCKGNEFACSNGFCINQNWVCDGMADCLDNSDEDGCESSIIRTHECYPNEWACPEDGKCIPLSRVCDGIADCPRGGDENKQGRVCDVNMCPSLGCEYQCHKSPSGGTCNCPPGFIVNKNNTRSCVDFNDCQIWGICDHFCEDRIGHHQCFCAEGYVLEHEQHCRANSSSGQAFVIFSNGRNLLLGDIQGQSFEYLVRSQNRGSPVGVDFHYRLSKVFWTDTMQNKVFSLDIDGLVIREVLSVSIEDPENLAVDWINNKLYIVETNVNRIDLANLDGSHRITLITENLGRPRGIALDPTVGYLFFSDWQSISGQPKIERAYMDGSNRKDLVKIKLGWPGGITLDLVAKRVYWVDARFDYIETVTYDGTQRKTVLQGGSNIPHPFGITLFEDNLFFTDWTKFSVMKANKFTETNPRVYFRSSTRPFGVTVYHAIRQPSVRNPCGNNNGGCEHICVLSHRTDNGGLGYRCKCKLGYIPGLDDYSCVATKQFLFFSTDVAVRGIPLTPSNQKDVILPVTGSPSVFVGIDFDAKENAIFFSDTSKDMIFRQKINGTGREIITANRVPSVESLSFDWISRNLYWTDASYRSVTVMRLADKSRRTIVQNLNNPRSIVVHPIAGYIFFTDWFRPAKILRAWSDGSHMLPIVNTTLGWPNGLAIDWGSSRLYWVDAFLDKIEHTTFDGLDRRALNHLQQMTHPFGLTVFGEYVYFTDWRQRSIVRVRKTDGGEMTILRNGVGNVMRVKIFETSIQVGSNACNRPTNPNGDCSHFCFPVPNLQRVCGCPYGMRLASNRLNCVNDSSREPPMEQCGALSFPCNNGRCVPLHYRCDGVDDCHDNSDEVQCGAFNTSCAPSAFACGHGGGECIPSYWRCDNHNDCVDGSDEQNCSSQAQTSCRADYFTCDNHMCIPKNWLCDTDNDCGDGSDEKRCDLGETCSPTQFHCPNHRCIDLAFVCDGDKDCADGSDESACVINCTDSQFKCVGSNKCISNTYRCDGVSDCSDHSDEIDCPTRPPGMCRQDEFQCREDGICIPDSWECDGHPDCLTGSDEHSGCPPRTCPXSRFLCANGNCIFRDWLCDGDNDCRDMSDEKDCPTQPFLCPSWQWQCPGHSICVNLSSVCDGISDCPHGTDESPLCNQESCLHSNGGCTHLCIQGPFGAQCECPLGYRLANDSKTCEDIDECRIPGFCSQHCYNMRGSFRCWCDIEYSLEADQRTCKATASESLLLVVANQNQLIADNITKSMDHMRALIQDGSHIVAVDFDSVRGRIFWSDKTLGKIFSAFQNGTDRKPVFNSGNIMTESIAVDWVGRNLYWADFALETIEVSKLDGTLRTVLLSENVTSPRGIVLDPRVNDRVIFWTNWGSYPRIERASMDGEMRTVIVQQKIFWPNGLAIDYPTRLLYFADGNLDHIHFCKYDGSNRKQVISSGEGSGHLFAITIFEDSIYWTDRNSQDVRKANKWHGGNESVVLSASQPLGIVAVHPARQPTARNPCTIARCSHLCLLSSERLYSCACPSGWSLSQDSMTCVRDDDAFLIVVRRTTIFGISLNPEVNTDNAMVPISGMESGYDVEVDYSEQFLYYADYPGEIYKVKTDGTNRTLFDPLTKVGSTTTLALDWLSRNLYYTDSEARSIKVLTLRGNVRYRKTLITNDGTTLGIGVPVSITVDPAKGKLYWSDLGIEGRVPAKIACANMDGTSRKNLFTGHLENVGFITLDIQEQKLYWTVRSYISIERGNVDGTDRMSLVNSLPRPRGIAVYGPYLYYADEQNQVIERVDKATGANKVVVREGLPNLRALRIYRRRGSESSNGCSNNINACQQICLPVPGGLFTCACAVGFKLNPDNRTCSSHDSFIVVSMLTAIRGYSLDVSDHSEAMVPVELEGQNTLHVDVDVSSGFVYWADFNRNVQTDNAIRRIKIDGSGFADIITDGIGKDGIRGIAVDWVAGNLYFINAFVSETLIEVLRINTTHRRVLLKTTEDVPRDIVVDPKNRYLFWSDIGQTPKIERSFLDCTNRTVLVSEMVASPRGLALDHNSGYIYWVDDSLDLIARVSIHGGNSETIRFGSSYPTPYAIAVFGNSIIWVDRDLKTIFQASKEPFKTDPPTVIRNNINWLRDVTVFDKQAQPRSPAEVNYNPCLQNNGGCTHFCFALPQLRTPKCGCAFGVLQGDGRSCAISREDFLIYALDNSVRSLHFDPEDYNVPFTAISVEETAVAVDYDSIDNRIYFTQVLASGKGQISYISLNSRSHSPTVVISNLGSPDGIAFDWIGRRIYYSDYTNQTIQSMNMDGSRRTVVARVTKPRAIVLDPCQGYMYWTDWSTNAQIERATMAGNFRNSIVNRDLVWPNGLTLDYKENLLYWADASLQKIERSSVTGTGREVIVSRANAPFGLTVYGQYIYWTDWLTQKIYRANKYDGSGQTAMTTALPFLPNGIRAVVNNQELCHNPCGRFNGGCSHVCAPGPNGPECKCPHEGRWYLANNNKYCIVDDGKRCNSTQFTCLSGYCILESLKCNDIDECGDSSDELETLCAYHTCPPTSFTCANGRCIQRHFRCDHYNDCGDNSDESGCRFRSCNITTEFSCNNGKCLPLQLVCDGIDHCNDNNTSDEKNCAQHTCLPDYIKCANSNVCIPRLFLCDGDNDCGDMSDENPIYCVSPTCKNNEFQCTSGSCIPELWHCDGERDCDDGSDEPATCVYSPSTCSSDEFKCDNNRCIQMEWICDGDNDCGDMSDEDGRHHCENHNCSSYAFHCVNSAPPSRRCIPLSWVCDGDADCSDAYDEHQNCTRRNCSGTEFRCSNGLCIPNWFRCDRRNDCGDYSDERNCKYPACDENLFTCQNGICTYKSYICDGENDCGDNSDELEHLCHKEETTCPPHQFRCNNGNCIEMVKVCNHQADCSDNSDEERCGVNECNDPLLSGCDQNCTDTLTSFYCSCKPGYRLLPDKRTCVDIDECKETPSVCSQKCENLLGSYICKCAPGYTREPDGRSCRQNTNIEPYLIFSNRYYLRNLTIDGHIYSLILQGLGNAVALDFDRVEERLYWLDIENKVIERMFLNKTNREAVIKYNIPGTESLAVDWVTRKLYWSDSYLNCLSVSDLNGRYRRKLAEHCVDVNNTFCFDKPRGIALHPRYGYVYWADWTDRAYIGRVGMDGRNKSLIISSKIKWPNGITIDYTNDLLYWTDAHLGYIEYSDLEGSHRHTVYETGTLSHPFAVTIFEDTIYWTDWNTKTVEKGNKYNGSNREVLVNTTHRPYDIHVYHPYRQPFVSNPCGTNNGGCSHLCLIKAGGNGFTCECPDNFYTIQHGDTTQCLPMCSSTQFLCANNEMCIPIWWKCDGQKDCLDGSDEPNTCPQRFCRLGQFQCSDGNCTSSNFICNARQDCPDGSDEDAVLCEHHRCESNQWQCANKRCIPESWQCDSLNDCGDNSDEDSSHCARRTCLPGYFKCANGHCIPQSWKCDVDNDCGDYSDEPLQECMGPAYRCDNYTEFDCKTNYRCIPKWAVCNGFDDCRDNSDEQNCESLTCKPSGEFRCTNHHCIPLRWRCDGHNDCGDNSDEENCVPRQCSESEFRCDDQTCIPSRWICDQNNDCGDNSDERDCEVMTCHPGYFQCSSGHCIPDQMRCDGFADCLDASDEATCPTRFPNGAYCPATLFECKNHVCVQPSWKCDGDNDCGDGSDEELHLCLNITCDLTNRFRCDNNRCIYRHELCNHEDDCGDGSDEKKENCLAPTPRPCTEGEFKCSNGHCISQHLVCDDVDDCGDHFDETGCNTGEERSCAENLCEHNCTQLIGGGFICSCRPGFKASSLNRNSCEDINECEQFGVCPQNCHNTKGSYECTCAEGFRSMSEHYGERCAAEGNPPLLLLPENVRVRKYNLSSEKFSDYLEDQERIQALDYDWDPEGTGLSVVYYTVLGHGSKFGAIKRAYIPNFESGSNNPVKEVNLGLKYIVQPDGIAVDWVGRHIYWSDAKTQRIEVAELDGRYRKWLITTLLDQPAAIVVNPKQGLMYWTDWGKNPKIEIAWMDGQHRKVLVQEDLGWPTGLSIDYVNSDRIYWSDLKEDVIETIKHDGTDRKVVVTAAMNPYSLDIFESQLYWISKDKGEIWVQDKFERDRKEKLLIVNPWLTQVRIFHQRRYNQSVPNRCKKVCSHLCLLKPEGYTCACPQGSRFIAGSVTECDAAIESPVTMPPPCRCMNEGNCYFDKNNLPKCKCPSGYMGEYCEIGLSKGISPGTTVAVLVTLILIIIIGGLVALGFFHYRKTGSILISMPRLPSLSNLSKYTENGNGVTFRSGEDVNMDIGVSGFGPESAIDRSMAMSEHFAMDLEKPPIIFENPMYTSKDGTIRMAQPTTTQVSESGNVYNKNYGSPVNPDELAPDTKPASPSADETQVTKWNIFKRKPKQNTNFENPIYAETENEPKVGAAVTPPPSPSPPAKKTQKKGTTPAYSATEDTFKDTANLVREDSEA
Structure (SMILES),Urine CC16/creatinine (megalin pathway [1]; [5]) [µg/g],mean kidney cystine at 8 months-of-age (Ctns KO mice kidneys),"kidney cystine as percentage of mean control diet, pooled for 8 and 12 months-of-age (Ctns KO mice kidneys; Ctns KO mice)",effect on megalin binding of lysozyme (porcine megalin [2]),increase of urinary excretion of CC16 (normalized for creatinine excretion) (megalin pathway [3]),NaPi-IIa and SGLT-2 mRNA levels (apical differentiation markers) (NaPi-IIa and SGLT-2),IC50 (porcine megalin [4]) [mM],SPR signal of amino-acid alone on megalin chip (porcine megalin [4]),"increase of microalbuminuria vs control diet (megalin pathway [1]; Ctns KO female mice, diet from 6-to-8 months of age)",Urine microalbumin/creatinine (megalin pathway [1]; [5]) [mg/g],"cumulative decrease of kidney cystine accumulation (Ctns KO mice kidneys; Ctns KO mice, two-months treatment from 6-to-8 months of age)"
"N=C(N)NCCC[C@H](N)C(=O)O [5x-L-arginine, L-arginine]",3151 ± 556.1,90.0 ± 32.3 nmol hemi-cystine/mg kidney protein,without reaching statistical significance,concentration-dependent decrease,did not detectably increase,failed to protect,57,no signal was detected,,,
"NCCCC[C@H](N)C(=O)O [5x-L-lysine, L-lysine]",4314 ± 540.3,83.6 ± 38.7 nmol hemi-cystine/mg kidney protein,significantly lower than control,concentration-dependent decrease,7 fold,significant yet limited benefit,25,no signal was detected,no detectable increase,0.1 ± 0.0,~ twofold
